Measured values as given in article PMC9785397, “Exploiting Conserved Quorum Sensing Signals in Streptococcus mutans and Streptococcus pneumoniae” (Microorganisms, 2022).
Values after ≈ are worked out from the molar mass of the structure shown. Where a name gives a salt, the structure may show the parent alone.

Experiments:
[1] = system: S. mutans; experiment: microbe, parasite or virus in culture; type: cell-based, Streptococcus mutans; conditions: for Minimum inhibitory concentration (MIC), S. mutans: peptides 0–50 μM, 37 °C, microaerophilic, A620 nm, three separate experiments
Description: (§1) Streptococcus mutans Clarke (strain designation NCTC 10449), Pseudomonas aeruginosa (Schroeter) Migula (strain designation PAO1), Fusobacterium nucleatum, subspecies nucleatum (strain VPI 4355), and Porphyromonas gingivalis (strain 2561) were purchased from ATCC (LGC Standards Srl, Milan, Italy). Streptococcus mitis, Streptococcus oralis, and Streptococcus sanguinis were obtained from clinical isolates and characterized by morphological, biochemical, and molecular typing. S. mutans, S. mitis, S. oralis, and S. sanguinis were maintained in Brain Heart Infusion (BHI) broth or agar under microaerophilic conditions. P. aeruginosa was maintained in trypticase soy (TS) agar or broth. F. nucleatum was maintained in TS agar or broth with defibrinated sheep blood under anaerobic conditions. P. gingivalis was maintained in ATCC Medium 2722 supplemented with TS broth or agar under anaerobic conditions. Before the experiments, bacterial cultures were inoculated in fresh media (dilution 1:100) and grown for 16 h at 37 °C.
(§2) The antimicrobial activities of the tested peptides were assessed through the determination of the minimum inhibitory concentration (MIC) standardized by the Clinical and Laboratory Standards Institute. Bacterial inocula were diluted in 10 mL of MHB […]. The concentration of the bacteria was adjusted to 0.5 McFarland standard, and the bacteria were dispensed in 96-well microtiter plates (final bacterial concentration: 1 × 10^4 CFU/well). Peptides were dissolved in sterile water (stock concentration: 2 mM) and added at final concentrations ranging from 0 to 50 µM. Plates were incubated at 37 °C for 16 h. At the end of incubation, bacterial growth was recorded using a microplate reader (Varioskan Lux Reader; Thermo Fisher Scientific, Milan, Italy) by quantifying the adsorption at 620 nm. Cultures were then opportunely diluted and seeded on agar plates. Bacterial cultures inoculated with the highest final concentration of the vehicle (sterile water) or chlorhexidine hydrochloride salt (CHX, concentration range: 0.05 to 500 μg/mL; Merck, Milan, Italy) were included as controls in each test. Experiments were performed in triplicate.

[2] = system: S. mitis; experiment: microbe, parasite or virus in culture; type: cell-based, Streptococcus mitis; conditions: for Minimum inhibitory concentration (MIC), S. mitis: peptides 0–50 μM, 37 °C, microaerophilic, A620 nm, three separate experiments
Description: as §1, §2

[3] = system: S. oralis; experiment: microbe, parasite or virus in culture; type: cell-based, Streptococcus oralis; conditions: for Minimum inhibitory concentration (MIC), S. oralis: peptides 0–50 μM, 37 °C, microaerophilic, A620 nm, three separate experiments
Description: as §1, §2

[4] = system: S. sanguinis; experiment: microbe, parasite or virus in culture; type: cell-based, Streptococcus sanguinis; conditions: for Minimum inhibitory concentration (MIC), S. sanguinis: peptides 0–50 μM, 37 °C, microaerophilic, A620 nm, three separate experiments
Description: as §1, §2

[5] = system: P. aeruginosa; experiment: microbe, parasite or virus in culture; type: cell-based, Pseudomonas aeruginosa; conditions: 16 h; for Minimum inhibitory concentration (MIC), P. aeruginosa: peptides 0–50 μM, 37 °C, aerobic, A620 nm, three separate experiments
Description: as §1, §2

[6] = system: F. nucleatum; experiment: microbe, parasite or virus in culture; type: cell-based, Fusobacterium nucleatum; conditions: 16 h; for Minimum inhibitory concentration (MIC), F. nucleatum: peptides 0–50 μM, 37 °C, anaerobic, A620 nm, three separate experiments
Description: as §1, §2

[7] = system: P. gingivalis; experiment: microbe, parasite or virus in culture; type: cell-based, Porphyromonas gingivalis; conditions: 16 h; for Minimum inhibitory concentration (MIC), P. gingivalis: peptides 0–50 μM, 37 °C, anaerobic, A620 nm, three separate experiments
Description: as §1, §2

[8] = system: S. mutans bacteriocin production against S. mitis; experiment: Bacteriocin overlay assay, S. mutans spotted on S. mitis; type: cell-based, Streptococcus mutans; conditions: analog 20 μM with CSP1 20 μM, 16 h, p < 0.05 vs CSP1
Method: (§3) During the formation of complex biofilm such as dental plaque, the ability of S. mutans to compete with other commensal species determines the success of the cariogenesis process. S. mutans uses antibacterial peptides, namely, bacteriocins, to overcome and subvert the composition of dental microbiota. We investigated the production of bacteriocins using the overlay assay. Overnight cultures of S. mitis, S. oralis, S. sanguinis, P. aeruginosa, F. nucleatum, or P. gingivalis were diluted 1:100 in BHI or TS broth and incubated at 37 °C until they reached an OD620 of 0.3. Cultures were added with agar (BD Difco^TM Agar) at the final concentration of 1.5% w/v and transferred in plates. Overnight cultures of S. mutans were diluted 1:100 in BHI and added with peptides (20 μM) or the vehicle with or without CSP1. Culture media were supplemented with agar to reach the final concentration of 0.7% w/v. The solutions were spotted on the surface of agar plates prepared as described above. The plates were kept on the benchtop for 30 min, allowing the agar containing S. mutans to solidify, and then incubated at 37 °C for 16 h under microaerophilic or anaerobic conditions, as required.
(§4) Spots (10 for each experimental group) were acquired and analyzed using NIH Image J software (version 1.53t August 2022, https://imagej.nih.gov/ij/index.html; accessed on 7 September 2022). The appearance of a clear area on the plate (bacterial growth inhibition) was evaluated as indicative of bacteriocin activity. The diameters of the area were measured in a blinded fashion.

[9] = system: S. mutans bacteriocin production against S. oralis; experiment: Bacteriocin overlay assay, S. mutans spotted on S. oralis; type: cell-based, Streptococcus mutans; conditions: analog 20 μM with CSP1 20 μM, 16 h, p < 0.05 vs CSP1
Method: as §3, §4

[10] = system: S. mutans bacteriocin production against S. sanguinis; experiment: Bacteriocin overlay assay, S. mutans spotted on S. sanguinis; type: cell-based, Streptococcus mutans; conditions: analog 20 μM with CSP1 20 μM, 16 h, p < 0.05 vs CSP1
Method: as §3, §4

[11] = system: bip gene; experiment: qRT-PCR, bip gene expression; type: cell-based, Streptococcus mutans; conditions: analog 20 μM with CSP1 20 μM, 8 h, qPCR, p < 0.05 vs CSP1
Method: (§5) S. mutans was cultured in BHI supplemented with peptides or the vehicle. Cultures were centrifuged, and total RNA was isolated and purified from the bacterial pellets using the GRS Total RNA Kit—Bacteria (GK16.0100; GRISP Research Solution, Porto, Portugal), following the manufacturer’s instructions. Purified RNA was subjected to DNase I treatment to remove contaminating DNA. The RNA yield and purity were assessed by measuring the absorbance, and only samples with a ratio of 260/280 nm in the 1.8–2 range were used. cDNA was generated using the cDNA RT kit with an RNAse inhibitor (Applied Biosystems; Monza, Milan). Quantitative PCR (qRT-PCR) was performed using SYBR green mixture (iScript One Step RT-PCR kit; Bio-Rad, Segrate, Milan) to determine the transcript levels of genes using the oligonucleotides listed in Table 3. The gyrA gene served as the housekeeping gene.

[12] = system: comD gene; experiment: qRT-PCR, comD gene expression; type: cell-based, Streptococcus mutans; conditions: analog 20 μM with CSP1 20 μM, planktonic, 8 h, qPCR
Method: as §5

[13] = system: comE gene; experiment: qRT-PCR, comE gene expression; type: cell-based, Streptococcus mutans; conditions: analog 20 μM with CSP1 20 μM, planktonic, 8 h, qPCR
Method: as §5

[14] = system: S. mutans biofilm formation; experiment: Biofilm formation (crystal violet); type: cell-based, Streptococcus mutans; conditions: CHX 0.63 μg/mL, 72 h, stimuli renewed every 24 h
Method: (§6) Overnight cultures of S. mutans were diluted 1:1000 in a 1:10 solution of BHI broth supplemented with 0.2% w/v sucrose and artificial saliva (AS; 1.3 g/L KCl, 0.1 g/L NaCl, 0.05 g/L MgCl, 0.1 g/L CaCl2, 0.5 g/L peptone, 25 μg/L NaF, 27 mg/L KH2PO4, 35 mg/L K2HPO4, pH 6.8; all reagents purchased from Merck). Cultures were seeded into 96-well polystyrene microtiter plates (200 µL/well) and incubated at 37 °C under static conditions. To identify the time of incubation that is useful in obtaining a mature biofilm, plates were incubated for 16, 24, 48, 72, or 96 h. Half of the media was renewed every 24 h. At the end of incubations, the wells were emptied and washed three times with sterile PBS to remove planktonic cells. Adhering cells were incubated with resazurin 0.01% in the dark at 37 °C for 20 min [30]. In metabolically active cells, the non-fluorescent resazurin was reduced to highly fluorescent resorufin by dehydrogenase enzymes. The relative fluorescence units (RFU) of resorufin were measured using a fluorimeter (Ex = 530–570 nm, Em = 590–620 nm; Varioskan Lux Reader; Thermo Fisher Scientific).
(§7) To assess the effect of the compounds on biofilm formation or mature biofilm, cultures of S. mutans were prepared as described above. […] The optical density was measured at 570 nm using a microplate reader (Varioskan Lux Reader; Thermo Fisher Scientific). […]

[15] = system: S. mutans mature biofilm; experiment: Mature biofilm (crystal violet); type: cell-based, Streptococcus mutans; conditions: CHX 0.63 μg/mL added at 48 h, biofilm assessed 24 h later
Method: as §6, §7

[16] = CHX, microdilution method and colony counting assay

CC[C@H](C)[C@H](NC(=O)[C@H](Cc1ccccc1)NC(=O)[C@H](CC(=O)O)NC(=O)[C@H](CCCNC(=N)N)NC(=O)[C@H](Cc1ccccc1)NC(=O)[C@H](Cc1ccccc1)NC(=O)[C@H](CCCCN)NC(=O)[C@H](CO)NC(=O)[C@H](CC(C)C)NC(=O)[C@H](CCCNC(=N)N)NC(=O)[C@H](CCSC)NC(=O)[C@H](CCC(=O)O)NC(C)=O)C(=O)N[C@@H](CC(C)C)C(=O)N[C@@H](CCC(N)=O)C(=O)N[C@@H](CCCNC(=N)N)C(=O)N[C@@H](CCCCN)C(=O)N[C@@H](CCCCN)C(=O)O [AcCSP1]
Minimum inhibitory concentration (MIC), S. mutans ([1]; 16 h): 20 µM (≈ 45.7 µg/mL) | Minimum inhibitory concentration (MIC), S. mitis ([2]; 16 h): 24 µM (≈ 54.8 µg/mL) | Minimum inhibitory concentration (MIC), S. oralis ([3]; 16 h): 21 µM (≈ 48 µg/mL) | Minimum inhibitory concentration (MIC), S. sanguinis ([4]; 16 h): 27 µM (≈ 61.7 µg/mL) | Minimum inhibitory concentration (MIC), P. aeruginosa [5]: >50 µM | Minimum inhibitory concentration (MIC), F. nucleatum [6]: >50 µM | Minimum inhibitory concentration (MIC), P. gingivalis [7]: >50 µM | Effect on the CSP1-induced antibacterial effects against S. mitis [8]: significantly reduced | Effect on the CSP1-induced antibacterial effects against S. oralis [9]: significantly reduced | Effect on the CSP1-induced antibacterial effects against S. sanguinis [10]: significantly reduced | Effect on the CSP1-induced expression of bip [11]: significantly reduced | Effect on the expression of comD induced by CSP1 [12]: inhibited the expression | Effect on the expression of comE induced by CSP1 [13]: inhibited the expression

[H]/N=C(\N/C(=N/[H])NCCCCCCNC(=N)NC(=N)Nc1ccc(Cl)cc1)Nc1ccc(Cl)cc1 [CHX, chlorhexidine hydrochloride salt]
Concentration inducing bactericidal activity, S. mutans [1, 16]: below 1 μg/mL | MIC ([1]; Streptococcus mutans, 16 h, read-out: Minimum inhibitory concentration (MIC), S. mutans): 0.63 µg/mL | Concentration inducing bactericidal activity, S. mitis [2, 16]: below 1 μg/mL | MIC ([2]; Streptococcus mitis, 16 h, read-out: Minimum inhibitory concentration (MIC), S. mitis): 0.5 µg/mL | Concentration inducing bactericidal activity, S. oralis [3, 16]: below 1 μg/mL | MIC ([3]; Streptococcus oralis, 16 h, read-out: Minimum inhibitory concentration (MIC), S. oralis): 0.57 µg/mL | Concentration inducing bactericidal activity, S. sanguinis [4, 16]: below 1 μg/mL | MIC ([4]; Streptococcus sanguinis, 16 h, read-out: Minimum inhibitory concentration (MIC), S. sanguinis): 0.69 µg/mL | MIC ([5]; Pseudomonas aeruginosa, read-out: Minimum inhibitory concentration (MIC), P. aeruginosa): 1.68 µg/mL | MIC ([6]; Fusobacterium nucleatum, read-out: Minimum inhibitory concentration (MIC), F. nucleatum): 300 µg/mL | MIC ([7]; Porphyromonas gingivalis, read-out: Minimum inhibitory concentration (MIC), P. gingivalis): 254 µg/mL | Reduction of biofilm formation vs. vehicle [14]: 70% | Reduction of mature biofilm vs. vehicle [15]: 54%

CC[C@H](C)[C@H](NC(=O)[C@H](Cc1ccccc1)NC(=O)[C@H](CC(=O)O)NC(=O)[C@H](CCCNC(=N)N)NC(=O)[C@H](Cc1ccccc1)NC(=O)[C@H](Cc1ccccc1)NC(=O)[C@H](CCCCNC(C)=O)NC(=O)[C@H](CO)NC(=O)[C@H](CC(C)C)NC(=O)[C@H](CCCNC(=N)N)NC(=O)[C@H](CCSC)NC(=O)[C@H](CCC(=O)O)NC(C)=O)C(=O)N[C@@H](CC(C)C)C(=O)N[C@@H](CCC(N)=O)C(=O)N[C@@H](CCCNC(=N)N)C(=O)N[C@@H](CCCCNC(C)=O)C(=O)N[C@@H](CCCCNC(C)=O)C(=O)O [Ac4CSP1]
Minimum inhibitory concentration (MIC), S. mutans ([1]; 16 h): 26 µM (≈ 62.7 µg/mL) | Minimum inhibitory concentration (MIC), S. mitis ([2]; 16 h): 28 µM (≈ 67.5 µg/mL) | Minimum inhibitory concentration (MIC), S. oralis ([3]; 16 h): 23 µM (≈ 55.5 µg/mL) | Minimum inhibitory concentration (MIC), S. sanguinis ([4]; 16 h): 25 µM (≈ 60.3 µg/mL) | Minimum inhibitory concentration (MIC), P. aeruginosa [5]: >50 µM | Minimum inhibitory concentration (MIC), F. nucleatum [6]: >50 µM | Minimum inhibitory concentration (MIC), P. gingivalis [7]: >50 µM | Effect on the CSP1-induced antibacterial effects against S. mitis [8]: significantly reduced | Effect on the CSP1-induced antibacterial effects against S. oralis [9]: significantly reduced | Effect on the CSP1-induced antibacterial effects against S. sanguinis [10]: significantly reduced | Effect on the CSP1-induced expression of bip [11]: significantly reduced | Effect on the expression of comD induced by CSP1 [12]: inhibited the expression | Effect on the expression of comE induced by CSP1 [13]: inhibited the expression
